The assay concerns the target Luciferin 4-monooxygenase (Photinus pyralis, UniProt P08659). In words: Activation of firefly luciferase activity expressed in HEK293T cells after 6 hrs by luminescence assay.

Luciferin 4-monooxygenase, sequence (P08659 whole entry): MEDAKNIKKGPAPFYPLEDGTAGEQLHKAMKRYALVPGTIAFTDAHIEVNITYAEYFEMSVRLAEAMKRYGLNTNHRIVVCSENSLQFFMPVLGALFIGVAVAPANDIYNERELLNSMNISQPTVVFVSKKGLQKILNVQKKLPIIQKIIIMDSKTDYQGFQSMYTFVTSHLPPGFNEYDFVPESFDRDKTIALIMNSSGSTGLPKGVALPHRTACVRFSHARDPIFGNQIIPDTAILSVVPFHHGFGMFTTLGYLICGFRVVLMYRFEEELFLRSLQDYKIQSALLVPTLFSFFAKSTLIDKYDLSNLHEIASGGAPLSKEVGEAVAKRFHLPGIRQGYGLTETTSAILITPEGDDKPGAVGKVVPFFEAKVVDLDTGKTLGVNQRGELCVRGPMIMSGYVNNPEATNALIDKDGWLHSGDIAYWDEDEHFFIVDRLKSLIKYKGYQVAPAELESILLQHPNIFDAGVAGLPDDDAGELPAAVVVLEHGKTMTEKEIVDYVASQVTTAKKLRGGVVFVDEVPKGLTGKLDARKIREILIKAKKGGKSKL

Regarding `CCCCCCCCCCCCCC(=O)O[C@@H]1[C@@H](C)[C@@]2(O)[C@@H](C=C(CO)C[C@]3(O)C(=O)C(C)=C[C@@H]23)[C@@H]2C(C)(C)[C@]12OC(C)=O` [phorbol 13-acetate 12-myristate], it took 10 nM to reach a half-maximal effect (EC50).

The values above are taken from BindingDB's records for doi:10.1016/j.bmcl.2018.12.057 (Indian Institute of Technology Madras, 2019).
